# Like-named read-outs stand apart in the source and are kept apart here.
# How the values were obtained:
# [1] = Circulating metabolites measured in plasma in clinical studies; type: in vivo, human; conditions: all studies
# [2] = tested on: CYP1A2; assay: CYP1A2 contribution to metabolism and retrograde intrinsic clearance; type: in vitro ADME, human; conditions: retrograde approach
# [3] = tested on: CYP2A6; assay: CYP2A6 contribution to metabolism and retrograde intrinsic clearance; type: in vitro ADME, human; conditions: retrograde approach
# [4] = tested on: CYP2C9; assay: CYP2C9 contribution to metabolism and retrograde intrinsic clearance; type: in vitro ADME, human; conditions: retrograde approach
# [5] = tested on: CYP2E1; assay: CYP2E1 contribution to metabolism and retrograde intrinsic clearance; type: in vitro ADME, human; conditions: retrograde approach
# [6] = tested on: CYP3A4; assay: CYP3A4 contribution to metabolism and retrograde intrinsic clearance; type: in vitro ADME, human; conditions: retrograde approach
# [7] = tested on: CYP3A5; assay: CYP3A5 contribution to metabolism and retrograde intrinsic clearance; type: in vitro ADME, human; conditions: retrograde approach
# [8] = target: T1, CYP2C8 (Homo sapiens, UniProt P10632); assay: CYP2C8 reversible; type: in vitro ADME
# T1 sequence (P10632 1-490): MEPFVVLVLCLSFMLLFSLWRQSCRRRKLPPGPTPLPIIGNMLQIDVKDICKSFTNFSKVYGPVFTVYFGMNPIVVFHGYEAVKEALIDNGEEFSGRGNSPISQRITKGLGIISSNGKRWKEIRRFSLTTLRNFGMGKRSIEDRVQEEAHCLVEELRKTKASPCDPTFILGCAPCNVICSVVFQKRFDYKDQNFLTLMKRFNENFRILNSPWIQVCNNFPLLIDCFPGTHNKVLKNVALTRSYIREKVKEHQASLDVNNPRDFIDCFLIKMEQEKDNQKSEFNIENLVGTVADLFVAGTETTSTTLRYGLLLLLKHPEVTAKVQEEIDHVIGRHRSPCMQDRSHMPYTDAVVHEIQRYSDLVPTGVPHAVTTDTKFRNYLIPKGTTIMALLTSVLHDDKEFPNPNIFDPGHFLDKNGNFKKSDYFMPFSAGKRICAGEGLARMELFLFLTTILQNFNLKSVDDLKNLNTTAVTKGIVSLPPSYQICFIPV
# [9] = tested on: CYP3A4/5; assay: CYP3A4/5 reversible; type: in vitro ADME; conditions: human
# [10] = Fraction unbound in microsomal incubation; type: in vitro ADME; conditions: microsomes (microsomal incubation)
# [11] = target: T2, BCRP (Homo sapiens, UniProt Q9UNQ0); assay: BCRP inhibition, basic static model; type: in vitro ADME
# T2 sequence (Q9UNQ0 1-655): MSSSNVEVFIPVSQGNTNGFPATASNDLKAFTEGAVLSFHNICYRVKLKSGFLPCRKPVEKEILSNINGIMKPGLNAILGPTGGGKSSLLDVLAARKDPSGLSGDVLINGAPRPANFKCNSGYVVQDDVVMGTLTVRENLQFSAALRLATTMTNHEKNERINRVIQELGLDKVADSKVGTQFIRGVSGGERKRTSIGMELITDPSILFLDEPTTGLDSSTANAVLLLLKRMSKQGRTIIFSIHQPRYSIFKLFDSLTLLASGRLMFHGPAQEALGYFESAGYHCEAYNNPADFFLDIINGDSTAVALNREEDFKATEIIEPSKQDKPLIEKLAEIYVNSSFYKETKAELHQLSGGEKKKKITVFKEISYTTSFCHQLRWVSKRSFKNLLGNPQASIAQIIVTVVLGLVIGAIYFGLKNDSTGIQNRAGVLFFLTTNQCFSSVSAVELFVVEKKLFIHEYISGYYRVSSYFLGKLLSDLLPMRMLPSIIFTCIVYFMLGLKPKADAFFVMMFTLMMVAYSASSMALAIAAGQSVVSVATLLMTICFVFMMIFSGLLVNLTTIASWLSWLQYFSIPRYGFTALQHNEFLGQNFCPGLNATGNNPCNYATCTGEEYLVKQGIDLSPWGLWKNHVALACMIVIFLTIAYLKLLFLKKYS
# [12] = target: T3, OATP1B1 (Homo sapiens, UniProt Q9Y6L6); assay: OATP1B1 inhibition, basic static model; type: in vitro ADME
# T3 sequence (Q9Y6L6 1-691): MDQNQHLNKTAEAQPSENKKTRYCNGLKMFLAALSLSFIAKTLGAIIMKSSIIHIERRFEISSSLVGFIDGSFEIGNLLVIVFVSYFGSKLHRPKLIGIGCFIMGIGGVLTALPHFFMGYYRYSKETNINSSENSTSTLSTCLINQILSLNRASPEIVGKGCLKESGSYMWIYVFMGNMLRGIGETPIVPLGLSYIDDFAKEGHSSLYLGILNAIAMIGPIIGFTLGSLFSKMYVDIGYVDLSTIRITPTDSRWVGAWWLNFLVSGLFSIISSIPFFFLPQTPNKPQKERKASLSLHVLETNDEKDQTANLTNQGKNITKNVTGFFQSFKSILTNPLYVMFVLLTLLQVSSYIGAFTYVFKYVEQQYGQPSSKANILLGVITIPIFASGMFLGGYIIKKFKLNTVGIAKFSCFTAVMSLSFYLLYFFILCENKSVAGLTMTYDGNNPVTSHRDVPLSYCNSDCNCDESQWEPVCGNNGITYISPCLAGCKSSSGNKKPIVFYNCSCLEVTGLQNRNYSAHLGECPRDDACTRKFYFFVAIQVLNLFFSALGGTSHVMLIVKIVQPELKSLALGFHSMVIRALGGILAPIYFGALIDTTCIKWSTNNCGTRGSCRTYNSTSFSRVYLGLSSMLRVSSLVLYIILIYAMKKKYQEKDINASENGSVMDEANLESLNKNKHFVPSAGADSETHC
# [13] = target: P-glycoprotein (P-gp) (Homo sapiens, UniProt P08183); assay: In vitro efflux transporter substrate study, P-gp; type: in vitro ADME
# [14] = target: T2, BCRP; assay: In vitro efflux transporter substrate study, BCRP; type: in vitro ADME
# [15] = type: in vivo; conditions: human, plasma, oral, 80 mg
# [16] = cited from earlier work
# [17] = tested on: CYP3A4/5; conditions: in vitro data; cited from earlier work
# [18] = doses studied 20–240 mg; cited from earlier work
# [19] = multiple doses 80 mg once daily, no inducer
# Chain of P-glycoprotein (P-gp) (P08183 whole entry): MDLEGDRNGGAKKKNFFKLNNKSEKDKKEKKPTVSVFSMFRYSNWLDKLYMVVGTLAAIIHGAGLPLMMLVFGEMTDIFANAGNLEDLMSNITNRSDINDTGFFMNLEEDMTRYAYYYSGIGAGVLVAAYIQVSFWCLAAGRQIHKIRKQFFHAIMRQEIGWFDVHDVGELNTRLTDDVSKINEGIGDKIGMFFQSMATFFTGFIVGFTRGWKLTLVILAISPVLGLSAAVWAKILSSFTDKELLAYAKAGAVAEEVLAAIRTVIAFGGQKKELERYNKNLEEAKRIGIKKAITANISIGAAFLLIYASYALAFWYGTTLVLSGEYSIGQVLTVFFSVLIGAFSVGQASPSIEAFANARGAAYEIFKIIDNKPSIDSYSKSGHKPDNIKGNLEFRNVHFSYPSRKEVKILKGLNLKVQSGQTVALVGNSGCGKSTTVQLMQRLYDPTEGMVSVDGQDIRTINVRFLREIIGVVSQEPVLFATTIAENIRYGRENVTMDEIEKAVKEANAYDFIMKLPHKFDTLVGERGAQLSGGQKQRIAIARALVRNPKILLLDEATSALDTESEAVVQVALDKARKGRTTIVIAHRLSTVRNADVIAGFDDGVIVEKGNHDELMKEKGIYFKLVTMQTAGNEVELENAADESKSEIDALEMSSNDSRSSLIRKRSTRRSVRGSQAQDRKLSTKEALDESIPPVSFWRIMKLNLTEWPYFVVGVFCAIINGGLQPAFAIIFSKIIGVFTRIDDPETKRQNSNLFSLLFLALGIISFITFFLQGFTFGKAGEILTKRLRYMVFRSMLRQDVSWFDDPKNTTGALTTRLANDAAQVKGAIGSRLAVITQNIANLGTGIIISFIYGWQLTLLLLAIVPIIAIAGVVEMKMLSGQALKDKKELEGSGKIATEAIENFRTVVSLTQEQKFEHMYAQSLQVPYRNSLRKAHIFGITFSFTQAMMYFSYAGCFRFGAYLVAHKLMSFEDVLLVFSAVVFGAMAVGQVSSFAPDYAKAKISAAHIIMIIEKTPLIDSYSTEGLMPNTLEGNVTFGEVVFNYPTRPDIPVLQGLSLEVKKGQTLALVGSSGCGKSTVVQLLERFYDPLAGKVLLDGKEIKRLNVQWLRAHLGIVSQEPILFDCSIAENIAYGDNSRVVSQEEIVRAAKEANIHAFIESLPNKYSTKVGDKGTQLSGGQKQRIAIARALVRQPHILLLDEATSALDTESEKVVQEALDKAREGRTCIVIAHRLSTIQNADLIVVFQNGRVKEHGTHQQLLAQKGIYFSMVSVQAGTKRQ
smiles,measurement,setting,value
C=CC(=O)Nc1cc(Nc2nccc(-c3cn(C)c4ccccc34)n2)c(OC)cc1N(C)CCNC [AZ7550],contribution of metabolite to total drug-related exposure,[1],< 10%
C=CC(=O)Nc1cc(Nc2nccc(-c3cn(C)c4ccccc34)n2)c(OC)cc1N(C)CCN(C)C [Osimertinib],CYP1A2 CLint,[2],0.520 µL/min/pmol of isoform
same,CYP2A6 CLint,[3],1.749 µL/min/pmol of isoform
same,CYP2C9 CLint,[4],0.479 µL/min/pmol of isoform
same,CYP2E1 CLint,[5],0.111 µL/min/pmol of isoform
same,CYP3A4 CLint,[6],0.731 µL/min/pmol of isoform
same,CYP3A5 CLint,[7],0.210 µL/min/pmol of isoform
same,Ki,[8],11.4 µM
same,Ki,[9],2.55 µM
same,fraction unbound,[10],0.0261
same,Ki,[11],2 µM
same,BCRP Potential for DDI,[11]; basic static model,likely
same,Ki,[12],22 µM
same,Ki,[12]; human,52.5 µM
same,substrate for P-gp,[13],substrate
same,substrate for BCRP,[14],substrate
same,AUC,[15],11.5 µM·h
same,median (range) Tmax,[16],6 (3–24) hours
same,median time of maximum plasma concentration (Tmax),[16]; oncology patients,6 h
same,oral clearance,[16]; oncology patients,14.2 L/h
same,volume of distribution,[16]; oncology patients,around 997 L
same,increase of Cmax and AUC with dose,[16]; single oral doses of 20 to 240 mg,dose proportional
same,fraction metabolized (fm) CYP3A,[17],54%
same,maximum tolerated dose,[18],no maximum tolerated dose was reached
same,"Css,max Geo.mean (range) [%CV], observed",[19],"545 (258 to 1,220) nM"

# Reference: article PMC5980577 (CPT: Pharmacometrics & Systems Pharmacology, 2018)
